The values that follow are results of earlier work, collected in patent US12295956B2, “Anti-viral compositions” (Calladine Pharmaceuticals Limited, priority 2018, dated 2025).

For data set [1] the following is noted: gentle heating to a pourable hot liquid.

`Nc1nc2c(ncn2COCCO)c(=O)[nH]1` [Aciclovir, aciclovir]: for the setting “hydrophobic solvent systems”, the “solubility in hydrophobic solvent systems” value is “almost totally insoluble”. Further, the solubility in water result (water) was “poor solubility in water”. In data set [1], the heat stability result is listed as “relatively heat stable”.
